Test results published in patent US9012470B2 (Dart NeuroScience (Cayman) Ltd., priority 2010, dated 2015).
Where a name gives a salt, the structure may show the parent alone.

How the values were obtained:
GABAA receptors = test: Electrophysiology assay, two-electrode voltage clamp in Xenopus oocytes expressing GABAA receptors; format: cell-based; conditions: GABA EC10, screening concentration of 10 μM, subunit combination not stated
Method: mRNA was prepared from lyophilized plasmid pellets containing cDNA inserts encoding the specific GABAA receptor subunit. cDNAs encoding the α2, α3, and γ3 subunits were subcloned into pBluescript, SK^−. cDNAs encoding the α1 and α5 subunits were subcloned into prC while cDNA encoding the β2 subunit was subcloned into pcDNA1. The cDNA construct encoding the γ2s subunit is in the pGH19 expression construct. Overnight cultures of transformed DH5a bacterial cells were performed to grow sufficient quantities for maxiprep isolation of the plasmid cDNA. The resulting plasmid cDNA was linearized by digestion with an appropriate restriction enzyme that cleaves distal to the cDNA insert (XbaI for α1,2, β2, and γ3 or NotI for α3,5 and γ2, respectively). Following digestion, plasmid cDNA was treated with proteinase K and extracted with phenol/chloroform/isoamyl alcohol, followed by ethanol precipitation. cDNA quality was assessed by agarose-gel electrophoresis (1.5% agarose gel). Samples were stored at −20° C. until use. In vitro transcription was performed with T7 RNA polymerase. mRNA was then stored at −80° C. until use. Plasmids were linearized with appropriate restriction enzymes before in vitro transcription using the Message Machine kit (Ambion, Austin, Tex.).
GABAA Receptor Expression in Xenopus oocytes.
GABAA receptor expression in Xenopus oocytes: Following 45 min of 0.15% Tricaine anesthesia, an ovarian section containing the follicular oocytes was removed from the frog through a lateral abdominal incision. Oocytes were immediately placed in a calcium-free solution (NaCl 96 mM, MgCl2 1 mM, KCl 2 mM, Hepes 50 mM, pyruvate 2.5 mM, gentamycin 100 μg/mL, penicillin-streptomycin 50 U/mL, pH 7.4). Following 1.5-2 hour incubation in 0.2% collagenase (type II, Sigma Chemical Co., St. Louis, Mo.) at room temperature, individual Dumont stage V and VI oocytes were transferred to an incubator and maintained overnight in Barth's solution (NaCl 84 mM, NaHCO3 2.4 mM, MgSO4 0.82 mM, KCl 1 mM, Ca(NO3)2 0.33 mM, CaCl2 0.41 mM, Tris/HCl 7.5 mM, pyruvate 2.5 mM, gentamycin 50 μg/mL, penicillin-streptomycin, 100 units/mL, pH 7.4) at 18-20° C. and used for experiments 1-5 days post-injection. Oocytes were injected solution using an electronic microinjector (Drummond, Broomall, Pa.) with 50 nL of RNA containing 0.3-0.5 ng of each subunit RNA in a 1:1:1 ratio. The injected oocytes were used for experiments after 1-5 days of incubation in Barth's solution at 18-20° C.
Measurements of ion currents from oocytes expressing GABAA receptors were performed using a Warner two-electrode voltage-clamp amplifier (Warner Instruments, Inc., Foster City, Calif.) (Park-Chung, M., et al. (1999) Brain Res. 830: 72-87 incorporated herein in its entirety). Microelectrodes were fabricated from borosilicate glass capillaries with a programmed pipette puller (Sutter Instrument Co., Calif.). Microelectrode resistance was 1-3 MΩ when filled with 3 M KCl. The oocyte recording chamber was continuously perfused with Ringer solution. Oocytes were clamped at a holding potential of −70 mV during data acquisition. The membrane current was filtered at 10 Hz and sampled at 100 Hz. Compounds were applied by a gravity-driven external perfusion system. The working volume of the recording chamber was 30 μL and the rate of the perfusion was approximately 50 μL/sec. Compound application was 10-20 sec followed by a 90 sec wash. Data acquisition and external perfusion was computer controlled by custom-developed software. All experiments were performed at room temperature (22-24° C.). Dose-response data from each oocyte were fitted to the Hill equation by non-linear regression using the equation: IGABA=Emax/(1+(EC50/c)^n^H)
Emax is the maximum response, EC50 is the concentration producing 50% of the maximal response, nH is the Hill coefficient and c is the concentration of agonist. […]

[1] = tested on: benzodiazepine site of GABAA; test: Binding assay, benzodiazepine site of GABAA (binding assay 1: rat brain, (3H)-flunitrazepam; binding assay 2: bovine hippocampal membranes, [3H]-RY80); conditions: radioligand binding; for % Inhibition at 10 μM: 10 μM test compound; for % Inhibition at 0.1 μM: 0.1 μM test compound
Method: The ability of a compound disclosed herein to act as ligand to the benzodiazepine site of GABAA can be determined using pharmacological models which are well known in the art using the following assay.
Binding assay 1: Whole brain (except cerebellum) of male Wistar derived rats weighing 175±25 g were used to prepare GABAA central benzodiazepine receptor in Na—K phosphate buffer pH 7.4. A 5 mg aliquot was incubated with 1 nM (^3H)-flunitrazepam for 60 minutes at 25° C. Experiments were performed in the presence or absence of 30 μM of GABA. Non-specific binding was estimated in the presence of 10 μM of diazepam. Membranes were filtered and washed, the filters were then counted to determine (^3H)-flunitrazepam specifically bound. Test compounds were tested in duplicate according to the required concentrations (Damm, H. W., et al. (1978) Res. Comm. Chem. Pathol. Pharmacol. 22: 597-560 incorporated herein in its entirety; Speth, R. C., et al. (1979) Life Sci. 24: 351-357 incorporated herein in its entirety).
Receptor Source: Bovine hippocampal membranes
Radioligand: [3H]-RY80 (40-80 Ci/mmol)
Final ligand concentration—[0.8 nM]
Non-specific Determinant: L-655,708—[0.5 μM]
Binding assay 2 followed procedures based on Li and Szabo (Li M., Szabo A., Rosenberg H. Evaluation of native GABAA receptors containing an α5 subunit. Eur. J. Pharmacol. 413: 63-72 (2001)). Incubation Conditions: Reactions are carried out in 50 mM Tris-Citrate (pH 7.8) containing 200 mM NaCl at 0-4° C. for 60 minutes. The reaction is terminated by rapid vacuum filtration onto glass fiber filters. Radioactivity trapped onto the filters is determined and compared to control values in order to ascertain any interactions of test compound with the benzodiazepine (central) binding site.

Row | SMILES | EP Modulation (GABAA receptors) | % Inhibition at 10 μM [1] | % Inhibition at 0.1 μM [1]
1 | CCNC(=O)n1ncc2c3nn(-c4cccc(Cl)c4)c(=O)c-3c[nH]c21 [Compound 6ad, 2-(3-chlorophenyl)-N-ethyl-3-oxo-2,3-dihydrodipyrazolo[3,4-b:3′,4′-d]pyridine-6(5H)-carboxamide] | E (E indicates negative modulation <20%) | A (A indicates % inhibition >80%) | 
2 | CCNC(=O)n1ncc2c3nn(-c4ccc(C(F)(F)F)cc4)c(=O)c-3c[nH]c21 [Compound 6ae, N-ethyl-3-oxo-2-(4-(trifluoromethyl)phenyl)-2,3-dihydrodipyrazolo[3,4-b:3′,4′-d]pyridine-6(5H)-carboxamide] | E (E indicates negative modulation <20%) | A (A indicates % inhibition >80%) | 
3 | CCNC(=O)n1ncc2c3nn(-c4cccc(C(F)(F)F)c4)c(=O)c-3c[nH]c21 [Compound 6ai, N-ethyl-3-oxo-2-(3-(trifluoromethyl)phenyl)-2,3-dihydrodipyrazolo[3,4-b:3′,4′-d]pyridine-6(5H)-carboxamide] | 0% | A (A indicates % inhibition >80%) | C (C indicates % inhibition <20%)
4 | CCNC(=S)n1ncc2c3nn(-c4ccccc4)c(=O)c-3c[nH]c21 [Compound 6ar, N-ethyl-3-oxo-2-phenyl-2,3-dihydrodipyrazolo[3,4-b:3′,4′-d]pyridine-6(5H)-carbothioamide] | E (E indicates negative modulation <20%) | A (A indicates % inhibition >80%) | 
5 | CCNC(=O)n1ncc2c3nn(-c4ccc(Cl)c(C(F)(F)F)c4)c(=O)c-3c[nH]c21 [Compound 6s, 2-(4-chloro-3-(trifluoromethyl)phenyl)-N-ethyl-3-oxo-2,3-dihydrodipyrazolo[3,4-b:3′,4′-d]pyridine-6(5H)-carboxamide] |  | B (B indicates % inhibition <80% and >20%) | 
6 | CC(C)NC(=O)n1ncc2c3nn(-c4ccc(Cl)c(C(F)(F)F)c4)c(=O)c-3c[nH]c21 [Compound 6t, 2-(4-chloro-3-(trifluoromethyl)phenyl)-N-isopropyl-3-oxo-2,3-dihydrodipyrazolo[3,4-b:3′,4′-d]pyridine-6(5H)-carboxamide] |  | C (C indicates % inhibition <20%) | 
7 | CC(C)NC(=O)n1ncc2c3nn(-c4ccsc4)c(=O)c-3c[nH]c21 [Compound 6v, N-isopropyl-3-oxo-2-(thiophen-3-yl)-2,3-dihydrodipyrazolo[3,4-b:3′,4′-d]pyridine-6(5H)-carboxamide] |  | B (B indicates % inhibition <80% and >20%) | 
8 | CC(C)NC(=O)n1ncc2c3nn(-c4ccc(Br)cc4)c(=O)c-3c[nH]c21 [Compound 6x, 2-(4-bromophenyl)-N-isopropyl-3-oxo-2,3-dihydrodipyrazolo[3,4-b:3′,4′-d]pyridine-6(5H)-carboxamide] |  | A (A indicates % inhibition >80%) | 
9 | CN(C)C(=O)n1ncc2c3nn(-c4ccccc4)c(=O)c-3c[nH]c21 [Compound 7c, N,N-dimethyl-3-oxo-2-phenyl-2,3-dihydrodipyrazolo[3,4-b:3′,4′-d]pyridine-6(5H)-carboxamide. TFA] |  | B (B indicates % inhibition <80% and >20%) | 
10 | CCNC(=O)n1cc2[nH]cc3c(=O)n(-c4ccc(Cl)cn4)nc-3c2c1 [Compound 13h, 2-(5-chloropyridin-2-yl)-N-ethyl-3-oxo-2,3-dihydropyrazolo[3,4-d]pyrrolo[3,4-b]pyridine-7(5H)-carboxamide] |  | A (A indicates % inhibition >80%) | A (A indicates % inhibition >80%)
11 | CC(C)NC(=O)n1cc2[nH]cc3c(=O)n(-c4ccccc4)nc-3c2c1 [Compound 13j, N-Isopropyl-3-oxo-2-phenyl-2,3-dihydropyrazolo[3,4-d]pyrrolo[3,4-b]pyridine-7(5H)-carboxamide] |  | A (A indicates % inhibition >80%) | B (B indicates % inhibition <80% and >20%)
12 | O=C(Nc1ccccc1)n1cc2[nH]cc3c(=O)n(-c4ccccc4)nc-3c2c1 [Compound 13k, 3-Oxo-N,2-diphenyl-2,3-dihydropyrazolo[3,4-d]pyrrolo[3,4-b]pyridine-7(5H)-carboxamide] |  | A (A indicates % inhibition >80%) | B (B indicates % inhibition <80% and >20%)
13 | CNC(=O)n1ccc2c3nn(-c4ccccc4)c(=O)c-3c[nH]c21 [Compound 17a, N-Methyl-3-oxo-2-phenyl-2,3-dihydropyrazolo[3,4-d]pyrrolo[2,3-b]pyridine-6(5H)-carboxamide] |  | C (C indicates % inhibition <20%) | C (C indicates % inhibition <20%)
14 | CCNC(=O)n1ccc2c3nn(-c4ccccc4)c(=O)c-3c[nH]c21 [Compound 17b, N-Ethyl-3-oxo-2-phenyl-2,3-dihydropyrazolo[3,4-d]pyrrolo[2,3-b]pyridine-6(5H)-carboxamide] |  | B (B indicates % inhibition <80% and >20%) | C (C indicates % inhibition <20%)
15 | CC(C)NC(=O)n1ccc2c3nn(-c4ccccc4)c(=O)c-3c[nH]c21 [Compound 17c, N-Isopropyl-3-oxo-2-phenyl-2,3-dihydropyrazolo[3,4-d]pyrrolo[2,3-b]pyridine-6(5H)-carboxamide] |  | C (C indicates % inhibition <20%) | C (C indicates % inhibition <20%)
16 | O=C(Nc1ccccc1)n1ccc2c3nn(-c4ccccc4)c(=O)c-3c[nH]c21 [Compound 17d, 3-Oxo-N,2-diphenyl-2,3-dihydropyrazolo[3,4-d]pyrrolo[2,3-b]pyridine-6(5H)-carboxamide] |  | C (C indicates % inhibition <20%) | C (C indicates % inhibition <20%)
17 | CCNC(=S)n1ccc2c3nn(-c4ccccc4)c(=O)c-3c[nH]c21 [Compound 17e, N-ethyl-3-oxo-2-phenyl-2,3-dihydropyrazolo[3,4-d]pyrrolo[2,3-b]pyridine-6(5H)-carbothioamide] |  | B (B indicates % inhibition <80% and >20%) | 
18 | CCNC(=O)n1ccc2c3nn(-c4ccc(Cl)cn4)c(=O)c-3c[nH]c21 [Compound 17f, 2-(5-Chloropyridin-2-yl)-N-ethyl-3-oxo-2,3-dihydropyrazolo[3,4-d]pyrrolo[2,3-b]pyridine-6(5H)-carboxamide] |  | B (B indicates % inhibition <80% and >20%) | 
